Experiments:
AMPA receptor = AMPA receptor binding affinity (in vitro); conditions: Table 1
From the text: In Vitro activity (receptor affinity):
(§1) The test results obtained by testing the compounds of the invention for their in-vitro AMPA receptor affinity and their ability to inhibit GABA release are presented in the following table: […]

[1] = system: cultured cerebral cortex neurons; experiment: 3H-GABA release, cultured cerebral cortex neurons; assay type: cell-based; conditions: Cerebral cortex neuron; inhibition of stimulated 3H-GABA release, mouse cortical neurons, Table 1
From the text: The compounds of the invention have also been tested for their ability to inhibit GABA release from cultured cerebral cortex neurons in the following test:
^3 H-GABA Release, Cortical Neurons
Background: Neurons which express receptors for excitatory amino acids can be depolarized by such compounds and this depolarization will ultimately lead to a release of transmitter substance from the neurons. Cultured neurons obtained from 15-day-old mouse embryo cortex are mainly GABAergic and express all types of excitatory amino acid receptors. This means that they can be stimulated by high potassium or by the excitatory amino acids, NMDA, AMPA and kainate to release their neurotransmitter GABA.
^3 H-GABA may be used to label the GABA transmitter pool in the neurons and the release of ^3 H-GABA from the neurons may be used as a simple functional model for studies of the effects of excitatory amino acids and their antagonists.
Method: Cerebral cortices of 16-day-old mouse embryos are chopped in 0.4×0.4 mm cubes. The tissue is dissociated by mild trypsinization (0.1% (wt/vol) trypsin, 37° C., 15 min) and subsequently inoculated into poly-L-lysine-coated 3-cm Petri dishes containing a slightly modified DMEM (24.5 mM KCI, 30 mM glucose) supplemented with p-aminobenzoate (7 μM), insulin (100 mU/L) and 10% (vol/vol) horse serum. Cells are maintained in culture for 5-7 days with the addition of the antimitotic agent cytosine arbinoside (40 μM) from day 2 in vitro to prevent glial profileration. For further details and references, see Drejer et al. Exp. Brain Res. 47, 259 (1982).
Release experiments are performed using the model described by Drejer et al. Life Sci. 38, 2077 (1986). Cerebral cortex neurons cultured in Petri dishes (30 mm) are added 100 μM γ-vinyl-GABA one hour before the experiment in order to inhibit degradation of GABA in the neurons. 30 min before the experiment 5 μCi ^3 H-GABA is added to each culture and after this preloading period the cell monolayer at the bottom of the dish is covered with a piece of nylon mesh to protect the cells against mechanical damage and to facilitate dispersion of medium over the cell layer. The preloading medium is removed and the Petri dishes are placed in a superfusion system consisting of a peristaltic pump continously delivering thermostated 37° C. superfusion medium HEPES buffered saline (HBS): 10 mM HEPES, 135 mM NaCl, 5 mM KCI, 0.6 mM MgSO4, 1.0 mM CaCl2 and 6 mM D-glucose; pH 7.4) from a reservoir to the top of the slightly tilted Petri dish. The medium is continously collected from the lower part of the dish and delivered to a fraction collector. Initially, the cells are superfused with HBS for 15 min (flow rate 2 ml/min). Then the cells are stimulated for 30 sec every 4 min by changing the superfusion medium from HBS to a corresponding medium containing […].
Test subtances are dissolved in 50% DMSO, 48% ethanol. The final DMSO and ethanol concentration in the assay must not exceed 0.1%.
The stimulated release of ^3 H-GABA (cpm) are corrected for the mean basal release(cpm) before and after stimulation.
The stimulated release in the presence of antagonists are expressed relative to the stimulated release and the IC50 value for the antagonist is calculated (the concentration (μM) of the test substance which inhibit 50% of the stimulated ^3 H-GABA release).
as §1

| SMILES | IC50 (AMPA receptor) [nM] | IC50 [1] [nM] |
| --- | --- | --- |
| CN1CCc2c(-c3ccc(S(=O)(=O)N(Cc4ccccc4)Cc4ccccc4)cc3)cc3c(c2C1)NC(=O)C3=NO [8-methyl-5-(4-(N,N-dibenzylsulphamoyl)-phenyl)-6,7,8,9-tetrahydro-1H-pyrrolo[3,2-h]-isoquinoline-2,3-dione-3-oxime] | 540 | 1900 |
| CCN1Cc2c(-c3ccc(S(=O)(=O)N4CCOCC4)cc3)cc3c(c2C1)NC(=O)C3=NO [7-ethyl-5-(4-(morpholinosulfonyl)phenyl)-1,6,7,8-tetrahydrobenzo[1,2-b:3,4-c]dipyrrole-2,3-dione-3-oxime] | 140 | 500 |
| CN1CCc2c(-c3ccc(S(=O)(=O)N4CCN(Cc5ccc6c(c5)OCO6)CC4)cc3)cc3c(c2C1)NC(=O)C3=NO [8-methyl-5-(4-(4-(3,4-methylenedioxybenzyl)-piperazinosulfonyl)phenyl)-6,7,8,9-tetrahydro-1H-pyrrolo[3,2-h]-isoquinoline-2,3-dione-3-oxime] | 130 | 500 |
| CN1CCc2c(c(-c3ccc(S(=O)(=O)N4CCOCC4)cc3)cc3c2NC(=O)C3=NO)C1 [7-methyl-5-(4-(morpholinosulfonyl)phenyl)-6,7,8,9-tetrahydro-1H-pyrrolo[2,3-f]isoquinoline-2,3-dione-3-oxime] | 110 | 250 |
| CON=C1C(=O)Nc2c1cc(-c1ccc(S(=O)(=O)N3CCOCC3)cc1)c1c2CCN(C)C1 [7-methyl-5-(4-(morpholinosulfonyl)phenyl)-6,7,8,9-tetrahydro-1H-pyrrolo[2,3-f]isoquinoline-2,3-dione-3-O-methyloxime] | 220 | 1600 |
| CCN1Cc2c(-c3ccc(S(=O)(=O)N(C)C)cc3)cc3c(c2C1)NC(=O)C3=NO [7-ethyl-5-(4-(N,N-dimethylsulphamoyl)phenyl)-1,6,7,8-tetrahydrobenzo[1,2-b:3,4-c]dipyrrole-2,3-dione-3-oxime] | 1600 | 4500 |
| CN1CCc2c(-c3ccc(S(=O)(=O)N4CCN(c5ccc(Cl)cc5)CC4)cc3)cc3c(c2C1)NC(=O)C3=NO [8-methyl-5-(4-(4-(4-chlorophenyl)piperazinosulfonyl)-phenyl)-6,7,8,9-tetrahydro-1H-pyrrolo[3,2-h]-isoquinoline-2,3-dione-3-oxime] | 68 | 877 |
| CN1CCc2c(-c3ccc(S(=O)(=O)N(CCO)CCO)cc3)cc3c(c2C1)NC(=O)C3=NO [8-methyl-5-(4-(N,N-bis(2-hydroxyethyl)sulphamoyl)-phenyl)-6,7,8,9-tetrahydro-1H-pyrrolo[3,2-h]-isoquinoline-2,3-dione-3-oxime] | 50 | 130 |
| CCN(CC)CCN(CCN(CC)CC)S(=O)(=O)c1ccc(-c2cc3c(c4c2CCN(C)C4)NC(=O)C3=NO)cc1 [8-methyl-5-(4-(N,N-di(2-(N,N-diethylamino)ethyl)-sulphamoyl)-phenyl)-6,7,8,9-tetrahydro-1H-pyrrolo[3,2-h]-isoquinoline-2,3-dione-3-oxime] | 38 | 450 |
| CN1CCc2c(-c3ccc(S(=O)(=O)N4CCN(CCO)CC4)cc3)cc3c(c2C1)NC(=O)C3=NO [8-methyl-5-(4-(4-(2-hydroxyethyl)piperazinosulfonyl)-phenyl)-6,7,8,9-tetrahydro-1H-pyrrolo[3,2-h]-isoquinoline-2,3-dione-3-oxime] | 19 | 100 |

Next, values leading:

| IC50 (AMPA receptor) [nM] | IC50 [1] [nM] | SMILES |
| --- | --- | --- |
| 100 | 3700 | CCOC(=O)c1ccc(-c2cc3c(c4c2CCN(C)C4)NC(=O)C3=NO)cc1 [8-methyl-5-(4-(ethoxycarbonyl)phenyl)-6,7,8,9 tetrahydro-1H-pyrrolo[3,2-h]-isoquinoline-2,3-dione-3-oxime] |
| 27 | 240 | CN1CCc2c(-c3ccc(S(=O)(=O)N4CCCCC4)cc3)cc3c(c2C1)NC(=O)C3=NO [8-methyl-5-(4-(piperidinosulfonyl)-phenyl)-6,7,8,9-tetrahydro-1H-pyrrolo[3,2-h]-isoquinoline-2,3-dione-3-oxime] |
| 200 | 1700 | CON=C1C(=O)Nc2c1cc(-c1ccc(S(=O)(=O)N(C)C)cc1)c1c2CN(C)CC1 [8-methyl-5-(4-(N,N-dimethylsulphamoyl)-phenyl)-6,7,8,9-tetrahydro-1H-pyrrolo[3,2-h]-isoquinoline-2,3-dione-3-O-methyloxime] |
| 34 | 340 | CCOC(=O)CNS(=O)(=O)c1ccc(-c2cc3c(c4c2CCN(C)C4)NC(=O)C3=NO)cc1 [8-methyl-5-(4-(N-(ethoxycarbonylmethyl)-sulphamoyl)phenyl)-6,7,8,9-tetrahydro-1H-pyrrolo[3,2-h]isoquinoline-2,3-dione-3-oxime] |
| 30 | 240 | CN1CCc2c(-c3ccc(S(=O)(=O)NC(C)(C)C)cc3)cc3c(c2C1)NC(=O)C3=NO [8-methyl-5-(4-(N-t-butylsulphamoyl)-phenyl)-6,7,8,9-tetrahydro-1H-pyrrolo[3,2-h]-isoquinoline-2,3-dione-3-oxime] |
| 40 | 30 | CN1CCc2c(-c3ccc(S(=O)(=O)N4CCOCC4)cc3)cc3c(c2C1)NC(=O)C3=NO [8-methyl-5-(4-(morpholinosulfonyl)phenyl)-6,7,8,9-tetrahydro-1H-pyrrolo[3,2-h]-isoquinoline-2,3-dione-3-oxime] |
| 190 | 310 | CN(C)CCN(C)S(=O)(=O)c1ccc(-c2cc3c(c4c2CCN(C)C4)NC(=O)C3=NO)cc1 [8-methyl-5-(4-(N-methyl-N-(2-(N,N-dimethylamino)-ethyl)sulphamoyl)-phenyl)-6,7,8,9-tetrahydro-1H-pyrrolo[3,2-h]-isoquinoline-2,3-dione-3-oxime] |
| 470 | 5500 | CN1CCc2c(-c3ccc(S(=O)(=O)N(C)C)cc3)cc3c(c2C1)NC(=O)C3=NOC(C)(C)C [8-methyl-5-(4-(N,N-dimethylsulphamoyl)-phenyl)-6,7,8,9-tetrahydro-1H-pyrrolo[3,2-h]-isoquinoline-2,3-dione-3-O-t-butyloxime] |
| 820 | 2160 | CN1CCc2c(-c3ccc(S(=O)(=O)N4CCOCC4)cc3)cc3c(c2C1)NC(=O)C3=O [8-methyl-5-(4-(morpholinosulfonyl)-phenyl)-6,7,8,9-tetrahydro-1H-pyrrolo[3,2-h]-isoquinoline-2,3-dione] |
| 66 | 380 | CN1CCc2c(-c3ccc(S(=O)(=O)Nc4ccccc4)cc3)cc3c(c2C1)NC(=O)C3=NO [8-methyl-5-(4-(N-phenylsulphamoyl)-phenyl)-6,7,8,9-tetrahydro-1H-pyrrolo[3,2-h]-isoquinoline-2,3-dione-3-oxime] |
| 40 | 330 | CN1CCc2c(-c3ccc(S(=O)(=O)NCCO)cc3)cc3c(c2C1)NC(=O)C3=NO [8-methyl-5-(4-(N-(2-hydroxyethyl)sulphamoyl)-phenyl)-6,7,8,9-tetrahydro-1H-pyrrolo[3,2-h]-isoquinoline-2,3-dione-3-oxime] |
| 140 | 190 | CN1CCc2c(-c3ccc(C(=O)N(C)C)cc3)cc3c(c2C1)NC(=O)C3=NO [8-methyl-5-(4-(N,N-dimethylcarbamoyl)-phenyl)-6,7,8,9-tetrahydro-1H-pyrrolo[3,2-h]-isoquinoline-2,3-dione-3-oxime] |
| 25 | 270 | CN1CCc2c(-c3ccc(S(N)(=O)=O)cc3)cc3c(c2C1)NC(=O)C3=NO [8-methyl-5-(4-(sulphamoyl)phenyl)-6,7,8,9-tetrahydro-1H-pyrrolo[3,2-h]isoquinoline-2,3-dione-3-oxime] |

From US5801174A, “Fused indole and quinoxaline derivatives, their preparation and use” (Neurosearch A/S, priority 1994, dated 1998)
